Assay results taken from paper PMC8398766, “Do Small Molecules Activate the TrkB Receptor in the Same Manner as BDNF? Limitations of Published TrkB Low Molecular Agonists and Screening for Novel TrkB Orthosteric Agonists” (Pharmaceuticals, 2021).
Like-named read-outs stand apart in the source and are kept apart here.

Experiments:
exTrkB = molecular target: T1, exTrkB (Homo sapiens, UniProt Q16620); assay: MST binding affinity (Kd) determination; details: non-binding compounds given as 0
T1 construct: human TrkB receptor (exTrkB), residues 1−430, was cloned into the pCMV2 expression vector; made in house; host or cells: ExpiCHO-S cells
Description: The gene encoding the extracellular domain of the human TrkB receptor (exTrkB), residues 1−430, was cloned into the pCMV2 expression vector. Protein expression was performed in suspension-cultivated mammalian ExpiCHO-S cells using the ExpiFectamine (Thermo Scientific, Thermo Fisher Scientific, Waltham, MA, USA) transfection reagent. The secreted protein was purified using a four-step protocol. Clarified culture medium was precipitated with ammonium sulfate added to a final concentration of 1.5 M and centrifuged (235,000× g, 60 min at 4 °C). The supernatant after centrifugation was applied on a HiTrap Phenyl column (GE Healthcare, Chicago, IL, USA) equilibrated with buffer A (25 mM Tris, 1 mM DTT; pH 7.5) with 1.5 M ammonium sulfate. Bound proteins were eluted with a linear gradient of buffer A. The eluted proteins were dialyzed overnight in buffer A and loaded on a CaptoQ ImpRes column (GE Healthcare) equilibrated with buffer A with 50 mM NaCl. The bound proteins were eluted with a linear gradient of buffer A with 1 M NaCl. The fractions containing exTrkB protein were pooled, and MnCl2 and CaCl2 (1mM final concentration each) were added. The sample was purified on a HiTrap Con A 4B column (GE Healthcare) equilibrated with buffer B (25 mM Tris, 0.5 M NaCl, 1 mM MnCl2, 1 mM CaCl2; pH 7.5) and eluted with buffer C (25 mM Tris, 0.1 M NaCl, 0.4 M α-D-glucopyranoside; pH 6.5). To improve the protein recovery, buffer C flow was paused nine times during elution. The eluted fractions were concentrated and purified by size-exclusion chromatography on a HiLoad 16/600 Superdex 200 column (GE Healthcare) in buffer A with 0.5 M NaCl. The protein samples were concentrated to 1 mg/mL, and buffer was exchanged (PBS; pH 7.4). Samples were frozen in liquid nitrogen and stored at −80 °C. The protein purity was estimated by SDS–PAGE followed by Coomassie Brilliant Blue staining. The protein concentration was determined from the absorption at 280 nm using an UV NanoDrop 1000 spectrophotometer (Thermo Scientific).
The exTrkB was labeled with a Monolith Protein Labeling Kit RED-NHS 2nd Generation (NanoTemper Technologies GmbH, Munich, Germany) according to the manufacturer’s protocol. The labelling efficiency was always determined spectrophotometrically with NanoPhotometer® NP80 (Impel) in line with the manufacturer’s recommendations. Labelled exTrkB protein was aliquoted and stored at −80 °C to avoid repeated freeze–thaw cycles. Before analysis, the exTrkB protein was thawed on ice and diluted with MST buffer (50 mM Tris pH = 8; 150 mM NaCl; 10 mM MgCl2; 0.1% Tween20) to the desired concentration.
For primary screening (single-point MST experiments for signal amplitude determination), each of the 987 screened compounds were diluted in MST buffer + 0.1% Tween20 to a final concentration of 0.5 mM. The tested compounds were mixed with exTrkB solution (the final concentration of exTrkB was 20 nM) and centrifuged (10,000× g, 4 min at 4 °C) to eliminate protein and compound aggregates. Before loading to capillaries (Monolith NT.115 Capillaries, NanoTemper Technologies GmbH), the samples were incubated for 5 min at 25 °C and then placed into the MST apparatus (Monolith, NanoTemper Technologies GmbH). The experiments were performed using nano-blue excitation, LED light adjusted to 20% excitation power, and MST power set to medium, and the fluorescence signal during thermophoresis was detected after 30 s. Single-point MST experiments were performed by the determination of the amplitude signal between the unbound and bound state between the molecule and exTrkB, which was analyzed using the MO.Control Software version 1.6 (NanoTemper Technologies GmbH). A reference sample containing only exTrkB and the equivalent DMSO concentration (v/v) was included in each individual MST experiment. At least three technical replicates were prepared for each of the tested compounds. A binding affinity study was performed for 113 of the selected compounds at 16 concentration points. […]

TrkB = details: cited from earlier work
[1] = Metabolic stability in human liver microsomes; details: compared with verapamil
[2] = Metabolic stability in mouse liver microsomes; details: compared with verapamil
TrkB receptor = molecular target: T2, TrkB receptor (Rattus norvegicus, UniProt Q63604); assay: ELFI TrkB phosphorylation, orthosteric agonist mode, SN56 T48 cell line; type: cell-based; details: TrkB phosphorylation (Tyr706), 15 min
T2 construct: host or cells: SN56 T48 cell line

[3] = no orthosteric activity given as 0

T2 sequence (Q63604 32-821): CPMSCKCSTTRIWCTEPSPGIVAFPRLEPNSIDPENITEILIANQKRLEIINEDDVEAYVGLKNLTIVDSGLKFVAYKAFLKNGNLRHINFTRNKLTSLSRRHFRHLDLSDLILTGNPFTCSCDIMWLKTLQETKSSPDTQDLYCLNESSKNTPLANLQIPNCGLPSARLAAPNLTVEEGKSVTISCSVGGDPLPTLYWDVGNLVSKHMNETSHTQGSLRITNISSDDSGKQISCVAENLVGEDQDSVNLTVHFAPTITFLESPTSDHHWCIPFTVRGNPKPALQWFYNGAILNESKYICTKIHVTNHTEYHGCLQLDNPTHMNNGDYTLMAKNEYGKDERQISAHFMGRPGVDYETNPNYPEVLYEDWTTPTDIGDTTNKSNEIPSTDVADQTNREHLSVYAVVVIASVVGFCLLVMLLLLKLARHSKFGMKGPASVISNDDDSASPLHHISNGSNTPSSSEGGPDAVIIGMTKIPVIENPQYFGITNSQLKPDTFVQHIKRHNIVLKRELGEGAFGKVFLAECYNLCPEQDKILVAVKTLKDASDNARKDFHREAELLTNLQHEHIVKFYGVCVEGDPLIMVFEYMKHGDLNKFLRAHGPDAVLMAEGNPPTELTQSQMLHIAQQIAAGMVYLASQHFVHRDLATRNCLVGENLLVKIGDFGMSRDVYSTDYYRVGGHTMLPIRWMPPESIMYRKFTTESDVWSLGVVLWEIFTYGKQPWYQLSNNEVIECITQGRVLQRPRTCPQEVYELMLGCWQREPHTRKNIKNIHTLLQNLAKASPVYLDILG
T1 sequence (Q16620 32-430): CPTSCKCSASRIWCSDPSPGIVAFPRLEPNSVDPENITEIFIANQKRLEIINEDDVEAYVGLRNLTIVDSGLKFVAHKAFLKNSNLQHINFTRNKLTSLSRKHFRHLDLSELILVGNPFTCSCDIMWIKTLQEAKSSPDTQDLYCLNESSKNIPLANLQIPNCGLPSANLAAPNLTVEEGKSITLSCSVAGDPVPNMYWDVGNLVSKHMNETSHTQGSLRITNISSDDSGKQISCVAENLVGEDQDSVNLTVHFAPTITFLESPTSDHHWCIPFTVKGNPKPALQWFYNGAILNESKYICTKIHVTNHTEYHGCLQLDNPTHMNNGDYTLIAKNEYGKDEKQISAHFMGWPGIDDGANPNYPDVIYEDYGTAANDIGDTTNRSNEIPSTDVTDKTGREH

Kd (exTrkB) [nM]	EC50 (TrkB receptor; [3]) [nM]	EC50 (TrkB receptor) [nM]	Molecule	Kd (TrkB; ref Jang et al. (2010) [12], read-out: Binding affinity) [nM]	Kd (TrkB; ref Liu et al. (2014) [35], read-out: Binding affinity) [nM]	Metabolic stability in HLM (classification) [1]	Metabolic stability in MLM (classification) [2]	Kd (TrkB; SPR, ref [12],[35], read-out: Kd) [nM]
2600			O=C1C(O)=C(c2c[nH]c3ccccc23)C(=O)C(O)=C1c1c[nH]c2ccccc12 [CPL503052, didemethylasterriquinone D]					
5600	5000		C=CC(C)(C)c1[nH]c2ccccc2c1C1=C(O)C(=O)C(c2c[nH]c3c(CC=C(C)C)cccc23)=C(O)C1=O [DMAQ-B1]			instability of this compound in the experimental system	instability of this compound in the experimental system	
93	4	3.7	BDNF: Brain-derived neurotrophic factor, endogenous TrkB receptor agonist (protein, UniProt P23560 19-247, looked up) Neurotrophic factor BDNF …: APMKEANIRGQGGLAYPGVRTHGTLESVNGPKAGSRGLTSLADTFEHVIEELLDEDQKVRPNEENNKDADLYTSRVMLSSQVPLEPPLLFLLEEYKNYLDAANMSMRVRRHSDPARRGELSVCDSISEWVTAADKKTAVDMSGGTVTVLEKVPVSKGQLKQYFYETKCNPMGYTKEGCRGIDKRHWNSQCRTTQSYVRALTMDSKKRIGWRFIRIDTSCVCTLTIKRGR					1.7

Molecule	Kd (exTrkB) [nM]	EC50 (TrkB receptor; [3]) [nM]	EC50 (TrkB receptor) [nM]	Kd (TrkB; ref Jang et al. (2010) [12], read-out: Binding affinity) [nM]	Kd (TrkB; ref Liu et al. (2014) [35], read-out: Binding affinity) [nM]	Metabolic stability in HLM (classification) [1]	Metabolic stability in MLM (classification) [2]	Kd (TrkB; SPR, ref [12],[35], read-out: Kd) [nM]
O=c1cc(-c2ccccc2)oc2c(O)c(O)ccc12 [7,8-DHF, 7,8-dihydroxyflavone]	1300			15.4	12.1	moderate degradation rate	moderate degradation rate	
